Where two headings read alike, the source gives them in different places.
Columns and labels:
blowfly Lucilia caesar [1] = experiment: Blowfly paralytic assay, intrathoracic injection; format: in vivo; conditions: L. caesar; for PD50 [1 h]: 1 h post injection, mean ± SEM, n = 3, ten flies per dose
Protocol: (§1) In this study, we screened the neurotoxic activity of U11 when injected into a panel of beneficial and pest insects such as honeybees, blowflies, and aphids. Blowfly is a dipteran model commonly used to evaluate the insecticidal potency of venom peptides. Blowfly maggots (Lucilia caesar) were bought from a fisheries shop (Euroloisir81, Lescure-d’Albigeois, France) and were kept at 25 °C until hatching. Flies 1–4 days post hatching were used for the injection assays. Honeybee (Apis mellifera) is a model of choice to assess the impact of a toxin against beneficial insects such as pollinators. The honeybee colonies used in this study belong to the Buckfast breed and were maintained at the University Champollion campus in Albi. Adult foraging honeybees were individually isolated in plastic vials and immediately injected. Assays on blowflies and honeybees were conducted by lateral intrathoracic injection of peptides dissolved in ultra-pure water at several concentrations (from 0.005 to 0.52 mM for L. caesar and from 0.002 to 1 mM for A. mellifera) by using a 1.0 mL Hamilton Syringe (1000 Series Gastight, Hamilton Company, Reno, NV, USA) with a fixed 25 gauge needle attached to an Arnold hand microapplicator (Burkard Manufacturing Co., Ltd., Rickmansworth, UK). Each fly/bee received 1 µL of peptide solution and was individually housed in a 2 mL tube with 3 µL of 5% glucose solution. Paralytic activity was monitored at 1 h and 24 h after injection while lethality was monitored only at 24 h. […] Ten flies/honeybees were used for each toxicity experiment and for the appropriate control (ultrapure water solution), and the experiment was repeated three times for each dose. Dose–response data were analyzed as detailed by Touchard et al.. The pea aphids A. pisum used in this study were obtained from a long-established parthenogenetic clone (LL01). Aphids were kept on young broad bean plants (Vicia faba, L. cv. Aquadulce) at 21 °C with a photoperiod of 16 h light 8 h dark, allowing us to maintain them as strictly parthenogenetic matrilines. To produce synchronized apterous nymphs, winged adults were allowed to reproduce on seedlings for 24 h. The resulting synchronized nymphs were reared for 9 days on plants before the beginning of the experiments (peptide injection or feeding). For the injection experiment, we used four groups of synchronized A9 aphids (30 per group): (i) non-injected aphids, (ii) aphids injected with sterilized ultra-pure water (injection control), (iii) aphids injected with PA1b inactivated peptide (non-toxic peptide injection control), and (iv) aphids injected with the U11 peptide. […] Aphids were monitored daily for 7 days after injection and their survival and behavior regularly checked, following the protocol developed by Ribeiro Lopes et al.. […]

[2] = system: honeybees (Apis mellifera); experiment: Honeybee paralytic assay, intrathoracic injection; format: in vivo; conditions: A. mellifera, n = 3
Protocol: In this study, we screened the neurotoxic activity of U11 when injected into a panel of beneficial and pest insects such as honeybees, blowflies, and aphids. Blowfly is a dipteran model commonly used to evaluate the insecticidal potency of venom peptides. Blowfly maggots (Lucilia caesar) were bought from a fisheries shop (Euroloisir81, Lescure-d’Albigeois, France) and were kept at 25 °C until hatching. Flies 1–4 days post hatching were used for the injection assays. Honeybee (Apis mellifera) is a model of choice to assess the impact of a toxin against beneficial insects such as pollinators. The honeybee colonies used in this study belong to the Buckfast breed and were maintained at the University Champollion campus in Albi. Adult foraging honeybees were individually isolated in plastic vials and immediately injected. […] Paralytic activity was monitored at 1 h and 24 h after injection while lethality was monitored only at 24 h. […] Dose–response data were analyzed as detailed by Touchard et al.. […] Aphids were monitored daily for 7 days after injection and their survival and behavior regularly checked, following the protocol developed by Ribeiro Lopes et al.. […]

[3] = system: aphids (Acyrthosiphon pisum); experiment: Aphid intra-abdominal injection assay; format: in vivo; conditions: A. pisum
Protocol: as §1, with “(LL01).” for “(LL01). Aphids were kept on young broad bean plants (Vicia faba, L. cv. Aquadulce) at 21 °C with a photoperiod of 16 h light 8 h dark, allowing us to maintain them as strictly parthenogenetic matrilines. To produce synchronized apterous nymphs, winged adults were allowed to reproduce on seedlings for 24 h. The resulting synchronized nymphs were reared for 9 days on plants before the beginning of the experiments (peptide injection or feeding). For the injection experiment, we used four groups of synchronized A9 aphids (30 per group): (i) non-injected aphids, (ii) aphids injected with sterilized ultra-pure water (injection control), (iii) aphids injected with PA1b inactivated peptide (non-toxic peptide injection control), and (iv) aphids injected with the U11 peptide.”

L. caesar = experiment: Ingestion assay on blowflies; format: in vivo, Lucilia caesar
Protocol: (§2) We used the same protocol used in Guo et al. for the ingestion assays with flies (L. caesar and D. melanogaster). Briefly, flies were placed in 2 mL microcentrifuge tubes right after hatching and were individually fed with 3 µL of 50% w/v sucrose solution (negative control) or sucrose solution containing the toxin. They were then kept at 25 °C. Mortality was recorded at 1, 2, 4, 24, 48, and 72 h after exposure to the tested compound. The surviving flies received 3 µL of 50% w/v sucrose solution without peptide each day until the end of the experiment. For each test, ten flies were used per treatment and each of them was replicated three times.

D. melanogaster = experiment: Ingestion assay on Drosophila; format: in vivo; conditions: fed at high doses in 50% sucrose (Figure S2)
Protocol: as §2

A. mellifera = experiment: Ingestion assay on honeybees; format: in vivo, Apis mellifera; conditions: force fed 5 µL sucrose solution with 8 mg/mL (110 nmol/g bee)
Protocol: The ingestion assays on honeybees were conducted by placing bees in 850 mL plastic storage boxes with 2 mL microcentrifuge tubes filled with 50% w/v sucrose solution and previously drilled for bee access. The boxes were kept at 25 °C in the dark and the bees were allowed to feed ad libitum on the sucrose solution. For each test, ten bees were used per treatment, and each of them was replicated three times. Lethality was recorded at 1, 2, 4, 24, and 48 h after exposure to U11 peptide.
For oral toxicity assays, insects were starved for 2 h prior testing. Bees were individually force fed with 5 µL of 50% w/v sucrose solution (negative control), or sucrose solution containing the toxin (8 mg/mL–110 nmol/g bee).

A. pisum = experiment: Feeding experiment on aphids; format: in vivo, Acyrthosiphon pisum; conditions: artificial diet with 500 μg/mL and 1 mg/mL, seven days
Protocol: For the feeding experiments on aphids, one-day-old aphids (corresponding to the first-instar nymphs N1) were placed for seven days in feeding chambers on 48 μL of a nutritive artificial diet specifically developed for A. pisum feeding, and development was completed with or without the peptide U11. The diets were changed after three days to avoid contamination. Ten N1 were deposited in the feeding chamber and three replicates were performed for each bioassay. Aphids’ mortality was assessed every day and compared between the different diets using a GLM linear regression model after observation of the residuals with a significance level of 5% on the R Studio software. Survival of aphids on two diets, completed, respectively, with U11 at 500 μg/mL and 1 mg/mL, was followed during seven days.

Sitophilus oryzae = experiment: Weevil toxicity test by ingestion; format: in vivo; conditions: S. oryzae, 800 μg/g of feed, two weeks
Protocol: S. oryzae toxicity tests were performed with the WAA42 strain as described previously. Briefly, the insects used for the bioassays were adults 2 to 3 weeks of age collected in one week experimental cohorts and placed in batches of 30 individuals on feed pellets containing the synthetic U11 tested in a whole grain-based diet. The tested concentration of the U11 was 800 μg/g of the feed. Bioactivity was assessed by daily insect survival during the first two weeks of contact with the test diet (27.5 °C, 70% room humidity) and by standard survival analysis.

[4] = system: S2 Drosophila embryonic cell line; experiment: CCK-8 cytotoxicity assay; format: cell-based
Protocol: (§3) The embryonic S2 Drosophila cell line (Thermofisher, Waltham, MA, USA) was maintained in Schneider’s insect medium (Sigma-Aldrich, Saint Louis, MO, USA) complemented with 10% heat-inactivated fetal bovine serum (FBS) (Sigma-Aldrich) and 1% Penicillin/Streptomycin (Sigma-Aldrich) at 25 °C without CO2 on TC-treated support (Corning®, Glendale, AZ, USA). The FBS was heat inactivated at 60 °C for 45 min. The cells were passaged every two days at about 90% confluence.
(§4) The CCK-8 (BosterBio, Pleasanton, CA, USA) and LDH (Dojindo, Rockville, MD, USA) assay kits were used to assess the cellular viability and mortality, with densities of 2 × 10^5 cells/mL and 6 × 10^5 cells/mL, respectively. Briefly, 100 µL of S2 cells at the appropriate densities were seeded in 96-well TC-treated plates and incubated for 24 h at 25 °C. […] Lysis Buffer, Triton 0.1%, and culture medium were used for controls. Viability and mortality cell assays were realized separately and in triplicates according to manufacturer’s instructions. The absorbances were measured using a BioTek Cytation 1 microplate reader (Agilent, Santa Clara, CA, USA) (i.e., 450 nm and 490 nm for CCK-8 and LDH assays, respectively). The percentages of living or dead cells were then calculated according to manufacturer’s recommendations.

[5] = system: S2 Drosophila embryonic cell line; experiment: LDH cytotoxicity assay; format: cell-based; conditions: S2 cells, 5 and 50 µM, 1 h and 24 h of incubation
Protocol: as §3, §4

S2 cells [6] = experiment: Membrane potential recorded by DiBAC4(3); format: cell-based, Drosophila; conditions: 10 µM, KCl 50 mM
Protocol: as §3
Variations of membrane potential were assessed using the fluorescent dye bis-(1,3-dibutybarbituric acid) (DiBAC4(3)) (Thermofisher) using a IX73 fluorescence microscope (Olympus, Japan). Then, 6 × 10^5 S2 cells were plated on 0.01% Poly-L-Lysine (Sigma-Aldrich) coated glass-bottom Petri dishes and allowed to adhere for 24 h before experiments. […] Baseline was recorded for 1 min before addition of KCl (50 Mm final) to achieve membrane depolarization. The results are presented as transformed data to obtain the relative fluorescence to the time of addition of the stimulus, according to the equation: Fx = Ft/F0, where Ft represents the fluorescent value at a specific time point and F0 represents the mean basal fluorescent value. To compare the different conditions, areas under the curve (AUC) after KCl addition were calculated (between 60 and 300 s).

S2 cells [7] = experiment: Intracellular Ca2+ mobilization, Fluo-4/AM probe; format: cell-based, Drosophila; conditions: 10 µM, 1 h preincubation, thapsigargin 2 µM then CaCl2 1.8 mM
Protocol: as §3
The [Ca^2+]i mobilization was measured with the Fluo-4/AM probe using the imaging reader Cytation 1 (BioTek, Agilent). Then, 6 × 10^5 S2 cells/mL were plated on glass-bottom Petri dishes and allowed to adhere for 24 h before experiments. Cells are incubated with 2 µM of Fluo-4/AM in cell culture medium with 2.5 mM probenecid for 1 h at 25 °C with 10 µM of U11 peptide. Then, cells were rinsed twice in Ca^2+-free buffer containing (in mM) 120 NaCl, 5 KCl, 4 MgCl2, 32.2 Sucrose, 10 HEPES, 0.1 EGTA, 2.5 probenecide (pH 7.2), incubated in Ca^2+-free buffer, and processed for measurement of cytoplasmic Ca^2+ concentration. […] Cell fluorescence was analyzed with CALIMA [59] […] Changes in the Ca^2+ cytosolic concentration were calculated from changes of fluorescence relative to time 0 (F = Ft/Ft0 (fluorescence at time = t/time = 0)).

blowfly Lucilia caesar [8] = conditions: L. caesar, 1 h post injection; cited from earlier work
Protocol: Table 2 Neuroactivity of ant venom peptides on blowfly species (Lucilia spp.) ranked by PD50 values 1 h post injection. | column: PD50 [1 h] *

[9] = cited from earlier work
Protocol: Table 2 Neuroactivity of ant venom peptides on blowfly species (Lucilia spp.) ranked by PD50 values 1 h post injection. | column: Cytotoxicity

## U11-MYRTX-Tb1a
Blowfly Lucilia caesar [1]; intrathoracic injection of one high dose per peptide (Table 1: U8 54, U10 28, U11 27, U13 45 nmol. g^−1), 1 h, ten flies per replicate, three replicates
  paralysis of flies 1 h after injection (screen): paralysis of all flies
Blowfly Lucilia caesar [1]; intrathoracic injection
  PD50 [1 h]: 1.78 ± 0.12 nmol/g
Blowfly Lucilia caesar [1]; intrathoracic injection, listed as U11-Tb1a
  PD50 [1 h]: 1.8 ± 0.1 nmol/g
Blowfly Lucilia caesar [1]; intrathoracic injection, 24 h post injection, n = 3
  PD50 24 h post injection: 2.67 ± 0.13 nmol/g
[2]; 1 h post injection
  PD50 1 h post injection: 1.36 ± 0.08 nmol/g
[2]; 24 h post injection
  PD50 24 h post injection: 1.11 ± 0.09 nmol/g
[3]; injection 3.4 nmol. g^−1, monitored over 7 days (Figure S1)
  effect on aphid fitness: weak effect
[3]; intra-abdominal injection, 3.4 nmol. g^−1 (46 nL of 0.25 mM), 24 h
  aphids affected 24 h post injection: 6.6%
[3]; intra-abdominal injection, 3.4 nmol. g^−1, 24 h
  paralytic effect on aphids by injection: weak paralytic effect
L. caesar; fed at high doses in 50% sucrose (Figure S2)
  toxicity by ingestion: active by ingestion
L. caesar; ingestion, 8 mg/mL (350 nmol. g^−1), 24 h
  blowflies affected 24 h post ingestion: 60%
D. melanogaster
  toxicity by ingestion: active by ingestion
A. mellifera
  toxicity by ingestion: unaffected
A. pisum
  toxicity by ingestion: unaffected
Sitophilus oryzae
  toxicity by ingestion: unaffected
[4]; S2 cells, 5 and 50 µM, 1 h and 24 h of incubation
  cytotoxicity, CCK-8 assay: not cytotoxic
[4]; Table 2, this study: CCK-8 and LDH assays on S2 cells
  Cytotoxicity: No
[5]
  cytotoxicity, LDH assay: not cytotoxic
S2 cells [6]; 30 min, DiBAC4(3), NMDG buffer
  depolarization-induced increase in fluorescence intensity, less than in the control condition: 33%
S2 cells [6]; 60-300 s, mean ± SEM of n = 220 cells (n = 3), control 464 ± 35
  AUC of relative fluorescence after KCl application: 312 ± 23
S2 cells [7]
  calcium mobilization (Tg response and calcium influx): No effect

## bicarinalin [M-Tb1a]
Blowfly Lucilia caesar [8]
  PD50 [1 h]: 12.0 ± 1.0 nmol/g
[9]
  Cytotoxicity: Yes

From article PMC10610885, “Discovery of an Insect Neuroactive Helix Ring Peptide from Ant Venom” (Toxins, 2023)
